The source of these data is patent US20100087466A1, “NOVEL SMALL MOLECULE DNAK INHIBITORS” (priority 2008, published 2010).

In test [1] the target is DnaK (Escherichia coli, UniProt P0A6Y8). Kind of test: DnaK Inhibition Assay (DnaK induced refolding of denatured firefly luciferase). Conditions: DnaK 200 nM, DnaJ 100 nM, GrpE 400 nM. Type of test: biochemical, E. coli. The procedure: Inhibition of the bacterial DnaK chaperone system may be evaluated by inhibition of the DnaK induced refolding of denatured firefly luciferase. More specifically, firefly luciferase is denatured by treatment with 8N guanidium hydrochloride at room temperature for 30 mins and then 5° C. for 1 h. After dilution into cold MOPS buffer augmented with ATP (2.5 mM) and DTT (12.5 mM) and standing for a further hour, the denatured luciferase is refolded by addition to a mixture of chaperone proteins in MOPS buffer, resulting in a reaction mixture containing denatured luciferase (24 nM), DnaK (200 nM), DnaJ (100 nM) and GrpE (400 nM). The extent of refolding is determined by addition of a luciferase substrate and measurement of the emitted chemoluminescence. In this format the substrate is the commercially available luciferase “Steady-Glo” reagent from Promega, Inc. Inhibition of DnaK induced refolding is determined by premixing the chaperone proteins with the test agent at concentrations of test agent ranging from 1-100 μg/mL. The extent of refolding is compared to that with no test reagent, and the IC50 is estimated by fitting the data to a standard sigmoidal dose-response curve.
DnaK, sequence (P0A6Y8 2-638): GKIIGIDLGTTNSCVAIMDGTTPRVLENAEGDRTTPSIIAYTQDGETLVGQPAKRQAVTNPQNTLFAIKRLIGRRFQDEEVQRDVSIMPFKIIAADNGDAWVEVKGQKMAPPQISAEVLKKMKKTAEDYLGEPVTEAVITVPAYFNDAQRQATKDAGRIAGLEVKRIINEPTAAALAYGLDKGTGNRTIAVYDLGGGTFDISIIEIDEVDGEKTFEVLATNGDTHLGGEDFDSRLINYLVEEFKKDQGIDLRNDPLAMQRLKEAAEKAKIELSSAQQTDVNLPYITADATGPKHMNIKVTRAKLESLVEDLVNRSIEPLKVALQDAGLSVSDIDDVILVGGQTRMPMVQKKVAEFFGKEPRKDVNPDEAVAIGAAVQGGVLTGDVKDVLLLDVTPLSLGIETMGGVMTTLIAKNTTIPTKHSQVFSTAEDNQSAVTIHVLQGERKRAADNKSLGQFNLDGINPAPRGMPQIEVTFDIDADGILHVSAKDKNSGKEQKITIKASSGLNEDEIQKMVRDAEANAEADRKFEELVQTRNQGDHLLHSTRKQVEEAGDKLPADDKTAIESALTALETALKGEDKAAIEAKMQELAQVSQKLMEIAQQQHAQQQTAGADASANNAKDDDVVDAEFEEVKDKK
Inhibition of the bacterial DnaK chaperone system was evaluated by inhibition of the DnaK induced refolding of denatured firefly luciferase. Firefly luciferase was denatured by treatment with 8N guanidium hydrochloride at room temperature for 30 mins and then 5° C. for 1 h. After dilution into cold MOPS buffer augmented with ATP (2.5 mM) and DTT (12.5 mM) and standing for a further hour, the denatured luciferase was refolded by addition to a mixture of chaperone proteins in MOPS buffer, resulting in a reaction mixture containing denatured luciferase (24 nM), DnaK (200 nM), DnaJ (100 nM) and GrpE (400 nM). The extent of refolding was determined by addition of a luciferase substrate and measurement of the emitted chemoluminescence. In this format the substrate is the commercially available luciferase “Steady-Glo” reagent from Promega, Inc. Inhibition of DnaK induced refolding was determined by premixing the chaperone proteins with the test agent at concentrations of test agent ranging from 1-100 μg/mL. The extent of refolding was compared to that with no test reagent, and the IC50 was estimated by fitting the data to a standard sigmoidal dose-response curve.
IC50 is defined as the concentration in μM at which 50% inhibition of DnaK induced refolding of denatured firefly luciferase occurs.

The subject of test [2] is H. influenzae (Strain 109). As to the kind of experiment: H. influenzae Inhibition Assay (broth microdilution MIC), Strain 109. Format: cell-based. Conditions: for MIC: Haemophilus influenzae. Here is the method: (§1) An in vitro assay may be conducted by determining the minimum inhibitory concentration (MIC) of the small molecules to Gram negative bacteria, such as H. influenza. H. influenzae MICs are determined using CLSI recommended broth microdilution methodology (M7-A7). Test agent powders are dissolved in DMSO, serial dilutions are also made in DMSO and 1:100 dilutions of each are then prepared in Haemophilus Test media (HTM). 100 μL of each final dilution are transferred to appropriate wells of a 96 well microtiter plate. The test organism is suspended in saline or Mueller Hinton broth to an organism density equivalent to a 0.5 McFarland Standard. 300 μL of the H. influenzae suspension is transferred to 11 mLs of HTM and 10 μL of this suspension is transferred to each well of the microtiter plate. […] Colony counts are determined for each inoculum and expected range of final organism concentration is 3-7×10^5 CFU/mL. One of the recommended H. influenzae quality control strains (ATCC 49247 or 49766) is also tested on each testing day.
as §1, with “H.” for “An in vitro assay may be conducted by determining the minimum inhibitory concentration (MIC) of the small molecules to Gram negative bacteria, such as H. influenza. H.”
(§2) Pyrrhocoricin was used as a control. MIC is defined as the lowest concentration of an anti-bacterial agent that will inhibit the visible growth of a microorganism after overnight incubation.

The subject of test [3] is H. influenzae (Strain 110). Kind of test: H. influenzae Inhibition Assay (broth microdilution MIC), Strain 110. Format: cell-based. Conditions: for MIC: Haemophilus influenzae. The procedure: as §1
as §1, with “H.” for “An in vitro assay may be conducted by determining the minimum inhibitory concentration (MIC) of the small molecules to Gram negative bacteria, such as H. influenza. H.”
as §2

Test [4] relates to E. coli (ATCC 25922). As to the kind of experiment: Antibacterial activity against E. coli (MIC). Format: cell-based. Conditions: Escherichia coli, ATCC25922.
[5] abbreviates: read-out: DnaK IC50(μg/ml) (converted).
Where [6] appears, read: Strain 109, HTM, 35° C., 20-24 hours, read-out: H. influenzae (Strain 109) MIC.
[7] abbreviates: Strain 110, HTM, 35° C., 20-24 hours, read-out: H. influenzae (Strain 110) MIC.

≈ marks a conversion by molar mass, not a printed value. Counter-ions that a name gives are not always drawn. Like-named read-outs stand apart in the source and are kept apart here. Non-standard residues stand in square brackets, D forms with d. Residues, ends and D or L forms follow the SMILES beside them. *: point of attachment. Phe(4-F) = N[C@@H](Cc1ccc(F)cc1)C(=O)O; Hyp = O=C(O)[C@@H]1C[C@@H](O)CN1; Octanoyl = CCCCCCCC(=O)*; Piperidide = C1CCN(*)CC1; Bn = c1ccc(C*)cc1

For the compound `COC(=O)[C@@H]1CCCN1C(=O)[C@H](CC(C)C)NC(=O)[C@H](Cc1ccc(OCc2ccccc2)cc1)NC(C)=O` [Structure 2, Ac-Tyr(Bzl)-Leu-Pro-OMe] (Ac-Tyr(Bn)-Leu-Pro-OMe), the IC50 was 63 µM in test [1] (read-out: DnaK IC50) and 219 µM in test [1] (setting [5]). Also, the MIC was 32 µg/mL (≈ 59.5 µM) in test [2] (setting [6]) and > 128 µg/mL in test [3] (setting [7]). The “inhibition of H. influenzae strain 109 compared with the control pyrrhocoricin” value in test [2] is on record as “lower concentration than the control”.

Take `CC(=O)N[C@@H](Cc1ccc(OCc2ccccc2)cc1)C(=O)N[C@@H](CC(C)C)C(=O)N1CCC[C@H]1C(=O)O` [Structure 3, Ac-Tyr(Bzl)-Leu-Pro-OH] (Ac-Tyr(Bn)-Leu-Pro-OH): the IC50 in test [1] (read-out: DnaK IC50) is 110 µM; in test [1] (setting [5]) it was 399 µM. For the same compound, the MIC in test [2] (read-out: H. influenzae (Strain 109) MIC (μg/ml)) is 32 µg/mL (≈ 61.1 µM); in test [3] (read-out: H. influenzae (Strain 110) MIC (μg/ml)), 64 µg/mL (≈ 122 µM). The “inhibition of H. influenzae strain 109 compared with the control pyrrhocoricin” value in test [2] is given as “surpasses that of pyrrhocoricin”. In addition, in test [3] (strain 110), the “inhibition of H. influenzae strain 110 compared with the control pyrrhocoricin” value is recorded as “surpasses that of pyrrhocoricin”.

As to `COC(=O)[C@@H]1CCCN1C(=O)[C@H](CC(C)C)NC(=O)[C@H](Cc1ccc(F)cc1)NC(C)=O` [Structure 10, Ac(4-F)Phe-Leu-Pro-OMe] (Ac-[Phe(4-F)]-Leu-Pro-OMe), the results for the IC50 in test [1] (read-out: DnaK IC50) and in test [1] (setting [5]) were 26 µM and 127 µM, respectively. Further, the MIC in test [2] (setting [6]) was 32 µg/mL (≈ 71.2 µM); in test [3] (setting [7]), > 128 µg/mL. For the same compound, the “inhibition of H. influenzae strain 109 compared with the control pyrrhocoricin” value in test [2] was “lower concentration than the control”.

Turning to `CC(=O)N[C@@H](Cc1ccc(F)cc1)C(=O)N[C@@H](CC(C)C)C(=O)N1CCC[C@H]1C(=O)O` [Structure 11] (Ac-[Phe(4-F)]-Leu-Pro-OH), the IC50 in test [1] (read-out: DnaK IC50) was 69 µM; in test [1] (setting [5]), 363 µM. Moreover, the MIC in test [2] (setting [6]) was 4 µg/mL (≈ 9.18 µM); in test [3] (setting [7]) it was > 128 µg/mL. Besides, the “inhibition of H. influenzae strain 109 compared with the control pyrrhocoricin” value in test [2] is on record as “lower concentration than the control”.

For the compound `CCC(C)[C@H](NC(C)=O)C(=O)N[C@@H](CCCCNC(=O)OCc1ccccc1)C(=O)N1CCC[C@H]1C(=O)O` (some centres unmarked) [Structure 22, Ac-Ile-Lys(Cbz)-Pro-OH], the IC50 in test [1] (read-out: DnaK IC50) is 14 µM; in test [1] (setting [5]) it was 50.7 µM. The MIC is 2 µg/mL (≈ 3.75 µM) in test [2] (setting [6]) and > 128 µg/mL in test [3] (setting [7]). For the same compound, the “inhibition of H. influenzae strain 109 compared with the control pyrrhocoricin” value in test [2] is reported as “lower concentration than the control”.

In the case of `CCCCCCCC(=O)N[C@@H](Cc1ccc(OCc2ccccc2)cc1)C(=O)N[C@@H](CC(C)C)C(=O)N1CCC[C@H]1C(=O)N1CC[C@H](NC(=N)N)C1` [Structure 29, Octanoyl-Tyr(Bzl)-Leu-Pro-(S)-(3-guanidino)pyrrolidinyl amide], the IC50 in test [1] (read-out: DnaK IC50) was 10 µM; in test [1] (setting [5]), 11.1 µM. In test [4], this compound had an MIC of 32 µg/mL (≈ 44.6 µM).

On to `CCCCCCCC(=O)N[C@@H](Cc1ccc(OCc2ccccc2)cc1)C(=O)N[C@@H](CC(C)C)C(=O)N1CCC[C@H]1C(=O)NCCNC(=N)N` [Structure 30, Octanoyl-Tyr(Bzl)-Leu-Pro-NH(CH2)2 NH—C(═NH)—NH2 trifluoroacetate], for which the results for the IC50 in test [1] (read-out: DnaK IC50) and in test [1] (setting [5]) were 19 µM and 21.7 µM, respectively. The compound further gave an MIC in test [4] of 32 µg/mL.

In the case of `CCCCCCCC(=O)N[C@@H](Cc1ccc(OCc2ccccc2)cc1)C(=O)N[C@@H](CC(C)C)C(=O)N1C[C@H](O)C[C@H]1C(=O)N[C@H](CCCNC(=N)N)C(=O)N1CCCCC1` [Structure 32, Octanoyl-Tyr(Bzl)-Leu-Hyp-ArgN(CH2)5 trifluoroacetate] (Octanoyl-Y(Bn)L[Hyp][dR]-Piperidide), the IC50 in test [1] (read-out: DnaK IC50) is 12 µM; in test [1] (setting [5]), 14.2 µM. The compound also registered an MIC in test [4] of 64 µg/mL.

For the compound `CCCCCCCC(=O)N[C@@H](Cc1ccc(OCc2ccccc2)cc1)C(=O)N[C@@H](CC(C)C)C(=O)N1CCC[C@H]1C(=O)N1CCCC(CNC(=N)N)C1` (stereo partly drawn) [Structure 33, Octanoyl-Tyr(Bzl)-Leu-Pro-(3-guanidinomethylpiperidine) trifluoroacetate], the IC50 in test [1] (read-out: DnaK IC50) is 23 µM; in test [1] (setting [5]), 26.8 µM. In addition, in test [4], the MIC came to 16 µg/mL.
